{"source": "patent US10517889B2", "about": "“Modulators of SMAD7 expression” (Ionis Pharmaceuticals, Inc., priority 2017, dated 2019)", "note": "Strand notation (5' to 3'): a small letter for the sugar, then the base; units joined by * are phosphorothioate-linked, units joined directly phosphodiester-linked; [ ] holds rarer units or linkages, { } end groups; capitals alone tell only the bases. e = 2'-O-(2-methoxyethyl) (MOE); [5mC] = 5-methylcytosine; d = 2'-deoxy (DNA)", "data": [{"tested_on": "human SMAD7 mRNA", "assay": "Antisense inhibition of human SMAD7 mRNA expression in Hep3B cells by 5-10-5 MOE gapmers, single concentration, electroporation, RT-PCR (Example 1, Study 1 and 2)", "format": "cell-based", "settings": "Study 2, electroporation with 15,000 nM antisense oligonucleotide, 5-10-5 MOE gapmers targeting SEQ ID NO: 1 and 2", "in_short": "(§1)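 Readout is percent SMAD7 mRNA inhibition versus untreated cells, measured by qRT-PCR (RTS5062) and corrected for total RNA by RIBOGREEN. Oligonucleotide, 5,000 nM or 15,000 nM, was delivered by electroporation into Hep3B cells at 20,000 per well. RNA was collected about 24 h later.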", "units": {"% inhibition of SMAD7 mRNA expression": "%"}, "values": [{"substance": "771614 (antisense eG*eT*eT*eT*eT*d[5mC]*dT*dA*dA*dG*dT*d[5mC]*d[5mC]*dG*dG*eG*eA*eA*eA*eA) [compound 771614]", "% inhibition of SMAD7 mRNA expression": 25}, {"substance": "771615 (antisense eA*eG*e[5mC]*eT*eG*dG*dT*dT*dT*dT*d[5mC]*dT*dA*dA*dG*eT*e[5mC]*e[5mC]*eG*eG) [compound 771615]", "% inhibition of SMAD7 mRNA expression": 45}, {"substance": "771620 (antisense e[5mC]*eA*e[5mC]*eA*e[5mC]*dA*dG*dG*dA*dT*dG*dG*dG*dA*dG*e[5mC]*eA*eG*eG*e[5mC]) [compound 771620]", "% inhibition of SMAD7 mRNA expression": 12}, {"substance": "771622 (antisense eA*eA*e[5mC]*eA*e[5mC]*dA*d[5mC]*dA*dG*dG*dA*dT*dG*dG*dG*eA*eG*e[5mC]*eA*eG) [compound 771622]", "% inhibition of SMAD7 mRNA expression": 34}, {"substance": "771623 (antisense eT*eA*eA*e[5mC]*eA*d[5mC]*dA*d[5mC]*dA*dG*dG*dA*dT*dG*dG*eG*eA*eG*e[5mC]*eA) [compound 771623]", "% inhibition of SMAD7 mRNA expression": 51}, {"substance": "771628 (antisense e[5mC]*e[5mC]*eA*eG*eG*dG*dA*d[5mC]*dA*dT*d[5mC]*d[5mC]*d[5mC]*d[5mC]*dG*e[5mC]*eT*eT*eG*e[5mC]) [compound 771628]", "% inhibition of SMAD7 mRNA expression": 12}, {"substance": "771630 (antisense eT*eG*e[5mC]*eT*eA*dA*dG*d[5mC]*dA*dT*dG*dT*d[5mC]*d[5mC]*d[5mC]*eT*e[5mC]*e[5mC]*e[5mC]*eA) [compound 771630]", "% inhibition of SMAD7 mRNA expression": 37}, {"substance": "771631 (antisense eG*eG*eG*eA*e[5mC]*dT*dG*d[5mC]*dT*dA*dA*dG*d[5mC]*dA*dT*eG*eT*e[5mC]*e[5mC]*e[5mC]) [compound 771631]", "% inhibition of SMAD7 mRNA expression": 0}, {"substance": "771638 (antisense eT*eA*eG*eG*eA*dT*dG*dG*dT*dA*d[5mC]*d[5mC]*dT*dT*dG*eG*eG*eT*eT*eA) [compound 771638]", "% inhibition of SMAD7 mRNA expression": 41}, {"substance": "771639 (antisense e[5mC]*eA*eG*e[5mC]*e[5mC]*dT*dA*dG*dG*dA*dT*dG*dG*dT*dA*e[5mC]*e[5mC]*eT*eT*eG) [compound 771639]", "% inhibition of SMAD7 mRNA expression": 51}, {"substance": "771644 (antisense eG*eA*eA*eG*eA*dA*dA*dT*dG*dA*dA*dA*dG*dA*dA*eG*eA*eG*eT*eT) [compound 771644]", "% inhibition of SMAD7 mRNA expression": 0}, {"substance": "771646 (antisense eT*eA*eT*eG*eA*dG*dT*dT*dG*dT*dA*dG*dA*dA*dG*eA*eA*eA*eT*eG) [compound 771646]", "% inhibition of SMAD7 mRNA expression": 0}, {"substance": "771647 (antisense eG*eA*eG*eT*eG*dT*dA*dT*dG*dA*dG*dT*dT*dG*dT*eA*eG*eA*eA*eG) [compound 771647]", "% inhibition of SMAD7 mRNA expression": 6}, {"substance": "771652 (antisense eA*eT*eT*eG*eA*dG*d[5mC]*dT*dA*dA*dG*dA*dA*d[5mC]*dA*eG*eT*eG*eT*e[5mC]) [compound 771652]", "% inhibition of SMAD7 mRNA expression": 0}]}, {"tested_on": "human SMAD7 mRNA", "assay": "Antisense inhibition of human SMAD7 mRNA expression in Hep3B cells by 5-10-5 MOE gapmers, single concentration, electroporation, RT-PCR (Example 1, Study 1 and 2)", "format": "cell-based", "settings": "electroporation with 15,000 nM antisense oligonucleotide (Study 2), 5-10-5 MOE gapmers targeting SEQ ID NO: 1 and 2", "in_short": "as §1", "units": {"% Inhibition of SMAD7 mRNA": "%", "% inhibition of SMAD7 mRNA expression": "%"}, "values": [{"substance": "771616 (antisense eT*eG*e[5mC]*eT*eG*dA*dG*d[5mC]*dT*dG*dG*dT*dT*dT*dT*e[5mC]*eT*eA*eA*eG) [compound 771616]", "% Inhibition of SMAD7 mRNA": 33, "% inhibition of SMAD7 mRNA expression": 0}, {"substance": "771617 (antisense e[5mC]*eA*eG*eT*eG*d[5mC]*dT*dG*dA*dG*d[5mC]*dT*dG*dG*dT*eT*eT*eT*e[5mC]*eT) [compound 771617]", "% inhibition of SMAD7 mRNA expression": 10}, {"substance": "771618 (antisense e[5mC]*eA*eG*eG*eA*dT*dG*dG*dG*dA*dG*d[5mC]*dA*dG*dG*e[5mC]*eA*eG*eT*eG) [compound 771618]", "% inhibition of SMAD7 mRNA expression": 30}, {"substance": "771624 (antisense eT*eT*eA*eA*e[5mC]*dA*d[5mC]*dA*d[5mC]*dA*dG*dG*dA*dT*dG*eG*eG*eA*eG*e[5mC]) [compound 771624]", "% Inhibition of SMAD7 mRNA": 27, "% inhibition of SMAD7 mRNA expression": 0}, {"substance": "771625 (antisense eG*e[5mC]*eT*eT*eA*dA*d[5mC]*dA*d[5mC]*dA*d[5mC]*dA*dG*dG*dA*eT*eG*eG*eG*eA) [compound 771625]", "% inhibition of SMAD7 mRNA expression": 48}, {"substance": "771626 (antisense eG*e[5mC]*eA*eG*eA*dG*d[5mC]*dT*dT*dA*dA*d[5mC]*dA*d[5mC]*dA*e[5mC]*eA*eG*eG*eA) [compound 771626]", "% inhibition of SMAD7 mRNA expression": 35}, {"substance": "771633 (antisense eG*eA*e[5mC]*e[5mC]*eA*dA*dA*dT*d[5mC]*d[5mC]*dT*dT*d[5mC]*dT*dT*eG*eG*eA*eG*eG) [compound 771633]", "% inhibition of SMAD7 mRNA expression": 40}, {"substance": "771640 (antisense eG*eG*eT*eG*eT*d[5mC]*dA*dG*d[5mC]*d[5mC]*dT*dA*dG*dG*dA*eT*eG*eG*eT*eA) [compound 771640]", "% Inhibition of SMAD7 mRNA": 35, "% inhibition of SMAD7 mRNA expression": 0}, {"substance": "771642 (antisense eA*eG*eA*eA*eG*dA*dG*dT*dT*dA*dG*dG*dT*dG*dT*e[5mC]*eA*eG*e[5mC]*e[5mC]) [compound 771642]", "% inhibition of SMAD7 mRNA expression": 36}, {"substance": "771648 (antisense e[5mC]*eA*eT*eA*e[5mC]*dG*dA*dG*dT*dG*dT*dA*dT*dG*dA*eG*eT*eT*eG*eT) [compound 771648]", "% Inhibition of SMAD7 mRNA": 17, "% inhibition of SMAD7 mRNA expression": 0}, {"substance": "771649 (antisense eA*eA*eG*eT*eA*dT*d[5mC]*dA*dT*dA*d[5mC]*dG*dA*dG*dT*eG*eT*eA*eT*eG) [compound 771649]", "% inhibition of SMAD7 mRNA expression": 0}, {"substance": "771650 (antisense eG*eA*eA*eG*eT*dA*dT*d[5mC]*dA*dT*dA*d[5mC]*dG*dA*dG*eT*eG*eT*eA*eT) [compound 771650]", "% inhibition of SMAD7 mRNA expression": 24}]}, {"tested_on": "human SMAD7 mRNA", "assay": "Antisense inhibition of human SMAD7 mRNA expression in Hep3B cells by 5-10-5 MOE gapmers, single concentration, electroporation, RT-PCR (Example 1, Study 1 and 2)", "format": "cell-based", "settings": "electroporation, 15,000 nM, approximately 24 hours, relative to untreated control cells, gapmers targeting SEQ ID NO: 1 and 2", "in_short": "as §1", "units": {"% inhibition of SMAD7 mRNA expression": "%"}, "values": [{"substance": "771613 (antisense e[5mC]*eT*eA*eA*eG*dT*d[5mC]*d[5mC]*dG*dG*dG*dA*dA*dA*dA*eA*e[5mC]*e[5mC]*eT*eG) [compound 771613]", "% inhibition of SMAD7 mRNA expression": 21}, {"substance": "771621 (antisense eA*e[5mC]*eA*e[5mC]*eA*d[5mC]*dA*dG*dG*dA*dT*dG*dG*dG*dA*eG*e[5mC]*eA*eG*eG) [compound 771621]", "% inhibition of SMAD7 mRNA expression": 36}, {"substance": "771629 (antisense eA*eG*e[5mC]*eA*eT*dG*dT*d[5mC]*d[5mC]*d[5mC]*dT*d[5mC]*d[5mC]*d[5mC]*dA*eG*eG*eG*eA*e[5mC]) [compound 771629]", "% inhibition of SMAD7 mRNA expression": 25}, {"substance": "771637 (antisense eT*eG*eG*eT*eA*d[5mC]*d[5mC]*dT*dT*dG*dG*dG*dT*dT*dA*eT*eG*eA*e[5mC]*eG) [compound 771637]", "% inhibition of SMAD7 mRNA expression": 23}, {"substance": "771645 (antisense eG*eT*eT*eG*eT*dA*dG*dA*dA*dG*dA*dA*dA*dT*dG*eA*eA*eA*eG*eA) [compound 771645]", "% inhibition of SMAD7 mRNA expression": 38}, {"substance": "771653 (antisense eT*eG*e[5mC]*eT*e[5mC]*dA*dT*dT*dG*dA*dG*d[5mC]*dT*dA*dA*eG*eA*eA*e[5mC]*eA) [compound 771653]", "% inhibition of SMAD7 mRNA expression": 33}]}]}
